Source: patent US10226509B2, “Lymphangiogenesis inhibitors for cancer and for graft survival” (TUFTS UNIVERSITY, priority 2014, dated 2019)

Key:
PDPN [1] = test: Cell surface expression of PDPN by flow cytometry; format: cell-based, human; details: 30 min post-treatment; Gal-8 0.2 μM
Protocol: Primary LECs were serum-starved overnight in basal EBM-2 medium. The cells were incubated with or without VEGF-C (50 ng/ml, PeproTech) or Gal-8 (0.2 μM) in serum-free EBM-2 medium for 10 and 30 min. At the end of the incubation period, cells were lifted with StemPro® Accutase® cell dissociation reagent (Invitrogen), washed with PBS and fixed with 4% paraformaldehyde/PBS on ice for 10 min, and were then stained using rat anti-human PDPN (1:500, BioLegend) and mouse anti-human VEGFR-3 (clone 9D9F9) (1:100, BioLegend) primary antibodies in cell staining buffer (BioLegend, 45 min on ice) and Alexa Fluor® 488 donkey anti-rat and Alexa Fluor® 647 anti-mouse secondary antibodies (1:1000, Invitrogen, 30 min on ice). For negative control, the primary antibodies were omitted. The stained cells were fixed with 2% paraformaldehyde/PBS, analyzed with BD FACSCalibur, and the mean fluorescence intensity of VEGFR-3 and PDPN were quantified with the FlowJo software (version 9.5.2).

VEGF-C = target: T1, VEGF-C (Homo sapiens, UniProt P49767); test: Affinity precipitation assay, VEGF-C; format: binding; details: galectin-conjugated agarose beads
T1 construct: Primary LECs were incubated with agarose beads (control), and galectin-conjugated agarose beads at 4° C. overnight; endogenous in cells; host or cells: primary lymphatic endothelial cells (LECs)
T1 sequence (P49767 112-227): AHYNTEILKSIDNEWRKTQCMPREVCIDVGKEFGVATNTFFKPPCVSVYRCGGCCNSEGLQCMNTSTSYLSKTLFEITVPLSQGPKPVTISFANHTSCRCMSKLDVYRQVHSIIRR

LEC plasma membrane = test: Immunocytochemistry / confocal microscopy of receptor clustering on LECs; format: cell-based, human
Protocol: […] Cells were blocked with Image-iT® signal enhancer (30 min, 25° C., Invitrogen) and incubated with primary antibodies (rat anti-human PDPN, 1:300, BioLegend; mouse anti-human VEGFR-3, 9D9F9, 1:100, BioLegend; rabbit anti-Gal-8, H-80, 1:100, Santa Cruz Biotechnology) in 2% BSA/PBS at 4° C. overnight. The cells were then washed with 2% BSA/PBS three times and incubated with appropriate secondary antibodies (Alexa Fluor® 488 anti-mouse, 1:200, Invitrogen; Alexa Fluor® 568 anti-rabbit, 1:200, Invitrogen; Alexa Fluor 647® anti-rat, 1:300, Jackson ImmunoResearch) at 25° C. for 1 hr. Cells were washed with PBS, slides were mounted with ProLong Gold antifade reagent with DAPI (Invitrogen) and were examined with the Leica TCS SPE imaging system (Leica).
Since galectin-glycan lattices segregate the cell surface receptors into discrete domains to initiate cell signaling (Lajoie, P., et al. 2009. J Cell Biol 185:381-385), assays were performed to determine whether Gal-8 clusters PDPN and VEGFR-3 on LEC plasma membrane. LECs were treated with Gal-8 for 15 minutes, fixed, stained with anti-PDPN, VEGFR-3 and Gal-8 antibodies, and examined by confocal microscopy. In control cells, which were incubated with buffer only, both PDPN and VEGFR-3 were homogenously distributed all over the LEC and in cell borders; endogenous Gal-8 was mainly distributed in cytosol (FIG. 9A-FIG. 9D). […]

PDPN [2] = target: T2, PDPN (Homo sapiens, UniProt Q86YL7); test: Affinity precipitation assay, PDPN; format: binding; details: galectin-conjugated agarose beads, LEC lysates
T2 construct: Within the whole cell lysate, an anti-PDPN-reactive 43-kDa component was detected; host or cells: primary lymphatic endothelial cells (LECs)
T2 sequence (Q86YL7 23-162): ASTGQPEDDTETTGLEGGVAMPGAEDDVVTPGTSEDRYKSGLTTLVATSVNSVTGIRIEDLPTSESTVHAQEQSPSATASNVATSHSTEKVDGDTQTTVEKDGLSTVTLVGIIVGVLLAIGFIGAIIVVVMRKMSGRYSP
Protocol: Five mg of plant lectins (Vector Labs) and galectins were conjugated to 330 mg of Pierce® NHS-activated agarose dry resin in accordance with the manufacturer's instructions (Thermo Scientific). Primary LECs (Lonza) were lysed in Triton lysis buffer (20 mM Tris-HCl, pH 7.4; 150 mM NaCl; 0.5% Triton X-100 with protease inhibitor cocktail). LEC lysates (250 μg in 500 μL lysis buffer supplemented with 10 mM MgCl2) were incubated with 40 μL (50% slurry) of agarose-conjugated lectins (4° C., overnight). Beads were pelleted by centrifugation at 3000 rpm for 1 min. Non-specific binding proteins were removed by washing the beads with Triton lysis buffer once and PBS twice. Supernatants were discarded; bound proteins were eluted by boiling the beads with 20 μL of 2× Laemmli sample buffer for 7 min, and examined by western blotting.
To determine whether PDPN binds to Gal-8 in a carbohydrate-dependent manner, LEC lysates were incubated with Gal-8-conjugated to agarose beads in the presence or absence of 0.1 M of lactose (an inhibiting sugar) or sucrose (a non-inhibiting sugar). Bound proteins were examined with total cell lysates (input) by western blot using an anti-PDPN antibody. To determine specificity of PDPN binding to Gal-8, LEC lysates were also incubated with agarose beads conjugated to Gal-1, Gal-3 and Gal-7. Within the whole cell lysate, an anti-PDPN-reactive 43-kDa component was detected (FIG. 7A).

- binding to VEGF-C (in words) (VEGF-C): does not interact with VEGF-C
- binding of PDPN (in words) (PDPN [2]): binds
Substance: Gal-8: recombinant galectin-8, tandem-repeat type galectin with two different CRDs
- increase of cell surface expression of PDPN (PDPN [1]): about 30%
- distribution of PDPN and VEGFR-3 on LECs (LEC plasma membrane; Gal-8 for 15 minutes): caused dramatic redistribution and clustering of PDPN and VEGFR-3 on LEC plasma membrane
- distribution of PDPN and integrin β1 on LECs (LEC plasma membrane; galectin-8 for 15 minutes, no permeabilization): caused dramatic redistribution and clustering of PDPN and integrin β1 on LEC plasma membrane
